Source: patent US20040220164A1, “Triaza compound immunoregulatory agents” (priority 2001, published 2004)
Converted amounts (≈) assume the structure as drawn. Like-named read-outs stand apart in the source and are kept apart here.

Legend:
HIV-1 strain NL4.3 = assay: Anti-HIV-1 assay in MT-4 cells (p24 Ag ELISA, Example 3); type: cell-based; settings: Human immunodeficiency virus 1, MT4; MT-4 cells; read-out: IC50 HIV-1 (NL4.3), p24 Ag ELISA
Description: Antiviral Assays. For HIV-1, MT-4 cells were infected with the HIV-1 strain NL4.3. Briefly, five-fold dilutions of the compounds (in 100 μl) were added to 96-well flat bottom plates (Iwaki, Japan). Then, to each well, 7.5×10^4 MT-4 cells were added in 50 μl medium, followed by 50 μl of diluted HIV-1 stock (strain NL4.3). Cytopathic effect (CPE) induced by the virus was checked regularly microscopically. When strong CPE was observed (after 3 to 5 days of incubation) in untreated HIV-1 infected cells, the supernatant was collected, stored at −20° C. and analyzed for HIV-1 core antigen by p24 Ag ELISA (NEN™, PerkinElmer Life Sciences, Boston, Mass.). Finally, the IC50 value of the compounds (i.e., the concentration of the compound required for 50% reduction of HIV infection as measured by viral p24 antigen level in the supernatant of infected MT-4 cells) was calculated.

[1] = Cytotoxicity assay (trypan blue exclusion, propidium iodide); type: cell-based, human; settings: human, read-out: CC50 (50% cytotoxic concentration)
Description: Cytotoxicity Assay. Cellular toxicity of the compounds was measured by trypan blue exclusion and also by Propidium Iodide by flow cytometry after 3 or 4 days of incubation, in parallel with the CD4 antigen expression. The CC50 value of each CADA analog is the concentration (in μg/ml) required to reduce the viability of the cells by 50%.

HHV-7 (KHR strain) = assay: Anti-HHV-7 assay in SupT1 cells (antigen expression, flow cytometry, Example 3); type: cell-based; settings: SUP-T1; SupT1 cells; read-out: IC50 HHV-7 (50% reduction of HHV-7 antigen expression)
Description: For HHV-7, five-fold dilutions of the compounds were added in 500 μl culture medium in 24-well flat bottom plates (Iwaki, Japan), whereupon 2×10^5 SupT1 cells were added in 400 μl culture medium. After 30 min incubation at room temperature, 100 μl of HHV-7 stock was added to each well. HHV-7-infected and mock-infected SupT1 cells were cultured in a final volume of 1 ml medium in the absence of the compounds. On day 4, half of the medium and the cells were replaced and fresh medium without new compound was added. This procedure was repeated every 2 or 3 days. The CPE was checked regularly microscopically. When CPE was observed, the HHV-7 antigen expression was monitored by flow cytometry, as described previously (Zhang, Y. et al. (1999) “Selective activity of various antiviral compounds against HHV-7 infection Antiviral Res. 43, 23-35.)

CD4 [2] = molecular target: T1, CD4 (Homo sapiens, UniProt P01730); assay: CD4 down-modulation, flow cytometry with FITC-conjugated anti-CD4 (SK3) mAb, MT-4 cells; type: cell-based; design: To study the effect of the CADA derivatives on surface CD4 antigen expression, MT-4 and SupT1 cells were incubated; endogenous in cells; host or cells: MT-4, SupT1, PBMC; settings: for IC50: MT-4 cells, day 3, read-out: IC50 CD4 (50% inhibition of extracellular CD4 expression) (converted); for CD4 down-modulating activity, fold less active than CADA: compared to CADA, MT-4 cells (stated for some compounds)
Description: Flow Cytometric Analyses. To study the effect of the CADA derivatives on surface CD4 antigen expression, MT-4 and SupT1 cells were incubated with a serial 5-fold dilution of the compounds (50, 10, 2, 0.4 and 0.08 μg/ml) or medium at 37° C. […] Briefly, after washing with phosphate-buffered saline (PBS) containing 2% fetal calf serum (FCS), cells were incubated with FITC-conjugated anti-CD4 (SK3) mAb for 30 min at 4° C. As a negative control for a specific background staining, cells were stained in parallel with Simultest Control γ1/γ^2a (Becton Dickinson). Then the cells were washed, fixed with 1% formaldehyde and analyzed by flow cytometry in a FACScalibur (Becton Dickinson, San Jose, Calif., USA). Data were acquired and analyzed with CellQuest software (Becton Dickinson). For the calculation of the CD4 receptor expression, the mean fluorescence intensity (MFI) of each sample was expressed as percentage of the MFI of control cells (after subtracting the MFI of the isotype control). Finally, the IC50 value of the compounds (i.e., the concentration of the compound required for 50% inhibition of extracellular CD4 expression) was calculated.

CD4 [3] = molecular target: T1, CD4; assay: CD4 down-modulation, flow cytometry with FITC-conjugated anti-CD4 (SK3) mAb, SupT1 cells; type: cell-based; design: To study the effect of the CADA derivatives on surface CD4 antigen expression, MT-4 and SupT1 cells were incubated; endogenous in cells; host or cells: MT-4, SupT1, PBMC; settings: day 4, read-out: IC50 CD4 (50% inhibition of extracellular CD4 expression) (converted)
Description: Flow Cytometric Analyses. To study the effect of the CADA derivatives on surface CD4 antigen expression, MT-4 and SupT1 cells were incubated with a serial 5-fold dilution of the compounds (50, 10, 2, 0.4 and 0.08 μg/ml) or medium at 37° C. Cell surface CD4 antigen expression was analyzed at day 3 (MT-4) or day 4 (SupT1). Briefly, after washing with phosphate-buffered saline (PBS) containing 2% fetal calf serum (FCS), cells were incubated with FITC-conjugated anti-CD4 (SK3) mAb for 30 min at 4° C. As a negative control for a specific background staining, cells were stained in parallel with Simultest Control γ1/γ^2a (Becton Dickinson). Then the cells were washed, fixed with 1% formaldehyde and analyzed by flow cytometry in a FACScalibur (Becton Dickinson, San Jose, Calif., USA). Data were acquired and analyzed with CellQuest software (Becton Dickinson). For the calculation of the CD4 receptor expression, the mean fluorescence intensity (MFI) of each sample was expressed as percentage of the MFI of control cells (after subtracting the MFI of the isotype control). Finally, the IC50 value of the compounds (i.e., the concentration of the compound required for 50% inhibition of extracellular CD4 expression) was calculated.

CD4 [4] = molecular target: T1, CD4; assay: Cell surface CD4 expression by flow cytometry (anti-CD4 mAb Leu3a-PE); type: cell-based; design: To study the effect of the CADA derivatives on surface CD4 antigen expression, MT-4 and SupT1 cells were incubated; endogenous in cells; host or cells: MT-4, SupT1, PBMC; settings: staurosporine together with CADA
Description: FIGS. 2A-2C. Surface CD4 expression in MT-4 cell line, SupT1 cell line and PBMCs after incubation with CADA hydrochloride (3.2 or 16 μM) for 1 and 4 days. (A) Cell surface CD4 expression of control MT-4 cells and MT-4 cells treated with CADA (3.2 μM) for 1 day or 4 days. (B) Cell surface CD4 expression of control SupT1 cells and SupT1 cells treated with CADA (3.2 μM) for 1 day or 4 days. (C) Cell surface CD4 expression of control PBMCs and PBMCs treated with CADA (16 μM) for 1 day or 4 days. The cells were stained with anti-CD4 mAb (Leu3a-PE). Percentages of fluorescent cells and MFI (mean fluorescence intensity) are indicated in each histogram.
FIG. 4. Comparison of the effects on CD4 modulation by ATA (24 μM), CADA hydrochloride (16 μM) and PMA (8 nM) in SupT1 cells after incubation with the compounds analyzed after 20 minutes, 4 hours, 1 day and 4 days.
Cells were incubated with CADA hydrochloride and the CD4 expression on the cell surface was analyzed. […] In peripheral blood mononuclear cells (PBMCs), the percentage of CD4 expression decreased to 0.2% after incubation with CADA (16 μM) for 4 days (FIG. 2).
Expression of various other surface antigens was also examined in MT-4 cells, SupT1 cells and PBMCs after incubation with CADA (16 μM) or CADA-free medium at 37° C. for 4 days. After washing with phosphate-buffered saline (PBS) containing 2% FCS(fetal calf serum), the cells were incubated with mAb (as indicated in Table 1) for 20 min at 4° C. Then the cells were washed, fixed with 1% formaldehyde and analyzed by flow cytometry. All mAbs were purchased from Becton-Dickinson (Erembodegem, Belgium).
CADA was compared with ATA and PMA with regard to their down-modulating effects. […] At day 4, the CD4 expression in SupT1 cells treated with CADA reduced to 1.2%.

Compound	IC50 (HIV-1 strain NL4.3) [µg/mL]	IC50 (HHV-7 (KHR strain)) [µg/mL]	IC50 (CD4 [2]) [µM]	CD4 down-modulating activity, fold less active than CADA (CD4 [2]) [fold]	IC50 (CD4 [3]) [µM]	CD4 down-modulating activity compared with CADA or parent analog (in words) (CD4 [2]; structure-activity discussion of Table 5 (MT-4 and SupT1 cells))	CC50 ([1]; MT-4 cells) [µg/mL]	CC50 ([1]; SupT1 cells) [µg/mL]	effect of PKC blocker on the down-modulation of CD4 with CADA (CD4 [4])
Cc1ccc(S(=O)(=O)N2CCCN(Cc3ccccc3)CCCN(S(=O)(=O)c3ccc(C)cc3)CCC2)cc1 [MFS-SC001]	> 10	0.65 (≈ 1.14 µM)	12.4	20	7.18		23.1 (≈ 40.5 µM)	32.2 (≈ 56.5 µM)	
C=C1CN(S(=O)(=O)c2ccc(Br)cc2)CCCN(Cc2ccccc2)CCCN(S(=O)(=O)c2ccc(Br)cc2)C1 [AS-PB127]	1.4 (≈ 1.97 µM)	0.88 (≈ 1.24 µM)	1.98	4	2.49		35.7 (≈ 50.2 µM)	> 50	
CN[C@@H]1C[C@H]2O[C@@](C)([C@@H]1OC)n1c3ccccc3c3c4c(c5c6ccccc6n2c5c31)C(=O)NC4 [staurosporine, reference compound]									did not show any effect

Continued, in another order:

IC50 (HIV-1 strain NL4.3) [µg/mL]	IC50 (HHV-7 (KHR strain)) [µg/mL]	IC50 (CD4 [2]) [µM]	CD4 down-modulating activity, fold less active than CADA (CD4 [2]) [fold]	IC50 (CD4 [3]) [µM]	CD4 down-modulating activity compared with CADA or parent analog (in words) (CD4 [2]; structure-activity discussion of Table 5 (MT-4 and SupT1 cells))	Compound	CC50 ([1]; MT-4 cells) [µg/mL]	CC50 ([1]; SupT1 cells) [µg/mL]	effect of PKC blocker on the down-modulation of CD4 with CADA (CD4 [4])
3.88 (≈ 6.47 µM)	1.94 (≈ 3.23 µM)	3.32	6	5.28		Cc1ccc(S(=O)(=O)N2CCCN(Cc3ccccc3)CCCN(S(=O)(=O)c3ccc(C)cc3)CC(CO)C2)cc1 [HJC321]	26.1 (≈ 43.5 µM)	> 50	
> 10	1.09 (≈ 1.64 µM)	2.86		> 75.3		Cc1ccc(S(=O)(=O)N2CCCN(S(=O)(=O)c3ccc(C)cc3)CC(C)(O)CN(S(=O)(=O)c3ccc(C)cc3)CCC2)cc1 [HJC241]	32 (≈ 48.2 µM)	> 50	
> 50	> 50	> 116		> 116	significant loss	C=C1CN(S(C)(=O)=O)CCCN(Cc2ccccc2)CCCN(S(C)(=O)=O)C1 [MFS105]	> 50	> 50	
